Results published in patent US20100041597A1, “PEPTIDES TARGETED TO PROTEIN KINASE C ISOFORMS AND USES THEREOF” (priority 2005, published 2010).

Key:
[1] = biological target: PKC-βI (Homo sapiens, UniProt P05771); experiment: Competitive binding assay using cell extracts (Western blot); parameters: cytoplasmic extracts from different cell lines expressing appropriate PKC isoforms; endogenous in cells; host or cells: H661, MDAMB231, LS180, T24; key to Affinity for PKC isoform βI: —: no detectable affinity; Low to very low affinity at 10X or 20X or both PRE concentrations in at least one cell line in the cell extract assay; Low affinity in purified isoform assay.; Moderate affinity at 10X or 20X or both PRE concentrations in at least one cell line in the cell extract assay.; High affinity at 10X or 20X or both PRE concentrations in at least one cell line in the cell extract assay; High affinity in purified isoform assay; settings: for Affinity for PKC isoform βI: Cell extract, PRE at 10X, 20X antibody concentration, Table 20
PKC-βI, sequence (P05771 2-671): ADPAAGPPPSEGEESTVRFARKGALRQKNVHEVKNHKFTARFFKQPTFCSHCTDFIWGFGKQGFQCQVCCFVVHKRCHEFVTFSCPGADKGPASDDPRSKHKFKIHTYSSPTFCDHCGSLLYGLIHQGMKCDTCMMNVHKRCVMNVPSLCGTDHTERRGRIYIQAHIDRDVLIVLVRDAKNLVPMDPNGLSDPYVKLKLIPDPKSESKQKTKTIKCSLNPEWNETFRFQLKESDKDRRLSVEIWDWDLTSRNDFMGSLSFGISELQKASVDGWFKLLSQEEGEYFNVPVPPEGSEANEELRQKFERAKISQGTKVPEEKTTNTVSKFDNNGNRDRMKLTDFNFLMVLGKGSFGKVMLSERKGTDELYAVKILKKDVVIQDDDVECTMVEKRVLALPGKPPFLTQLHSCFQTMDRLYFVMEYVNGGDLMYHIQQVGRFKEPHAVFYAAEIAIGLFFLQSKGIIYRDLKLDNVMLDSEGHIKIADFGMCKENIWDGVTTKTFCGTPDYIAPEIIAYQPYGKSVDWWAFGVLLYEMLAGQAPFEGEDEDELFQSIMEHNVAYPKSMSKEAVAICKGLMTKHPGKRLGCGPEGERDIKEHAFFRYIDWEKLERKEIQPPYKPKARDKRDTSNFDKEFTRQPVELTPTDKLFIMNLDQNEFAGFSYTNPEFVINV
Method: (§1) Binding efficiency and specificity of the peptides PRE 2, 3, 4, 5, 6, 7, 8, 9, 10, 11, 12 and 13 (see Table 3) was also tested using cytoplasmic extracts from different cell lines expressing appropriate PKC isoforms as described for Example 1. Briefly, the protein cytoplasmic extracts were separated by electrophoresis and transferred onto nitrocellulose membranes by standard Western blotting procedures. The bands on the Western blots were detected with matching primary antibodies and alkaline phosphatase conjugated secondary antibody. The bands were then scanned and the relative density measurements obtained.
(§2) This procedure to assess the binding characteristics of the PREs is based on competition binding of the PRE with the primary anti-isoform PKC specific antibodies. The lower the measured band density, the greater the binding of the PRE to the PKC isoform. The PREs were added at 10 and 20 times (10×, 20×) the primary antibody concentration, according to classical competition between antigenic peptide and primary antibody. The following cell lines (obtained from the ATCC) were used: H661—NCI human lung carcinoma NSCLC; MDAMB231—human highly invasive breast cancer cell line from pleural effusion; LS180—human colon adenocarcinoma; LnCAP—human prostate adenocarcinoma; CCD16Lu—human lung fibroblasts; Du145—human prostate carcinoma brain metastasis, and T24—human bladder carcinoma.
(§3) In these cases, the 20× band density figures relative to control and 10× values were reliable.

[2] = tested on: PKC-βII; experiment: as above; parameters: species or system human; key: —: no detectable affinity; Low to very low affinity at 10X or 20X or both PRE concentrations in at least one cell line in the cell extract assay; Low affinity in purified isoform assay.; Moderate affinity at 10X or 20X or both PRE concentrations in at least one cell line in the cell extract assay.; High affinity at 10X or 20X or both PRE concentrations in at least one cell line in the cell extract assay; High affinity in purified isoform assay; settings: Cell extract; PRE at 10X, 20X antibody concentration; Table 20
Method: as §1, §2, §3

[3] = biological target: T1, PKC-ζ (Homo sapiens, UniProt Q05513); experiment: as above; parameters: cytoplasmic extracts from different cell lines expressing appropriate PKC isoforms; endogenous in cells; host or cells: MDAMB231, LnCAP, Du145, H661, CCD16Lu (human, from ATCC); key: —: no detectable affinity; Low to very low affinity at 10X or 20X or both PRE concentrations in at least one cell line in the cell extract assay; Low affinity in purified isoform assay.; Moderate affinity at 10X or 20X or both PRE concentrations in at least one cell line in the cell extract assay.; High affinity at 10X or 20X or both PRE concentrations in at least one cell line in the cell extract assay; High affinity in purified isoform assay; settings: Cell extract; PRE at 10X, 20X antibody concentration; Table 20
T1 sequence (Q05513 1-592): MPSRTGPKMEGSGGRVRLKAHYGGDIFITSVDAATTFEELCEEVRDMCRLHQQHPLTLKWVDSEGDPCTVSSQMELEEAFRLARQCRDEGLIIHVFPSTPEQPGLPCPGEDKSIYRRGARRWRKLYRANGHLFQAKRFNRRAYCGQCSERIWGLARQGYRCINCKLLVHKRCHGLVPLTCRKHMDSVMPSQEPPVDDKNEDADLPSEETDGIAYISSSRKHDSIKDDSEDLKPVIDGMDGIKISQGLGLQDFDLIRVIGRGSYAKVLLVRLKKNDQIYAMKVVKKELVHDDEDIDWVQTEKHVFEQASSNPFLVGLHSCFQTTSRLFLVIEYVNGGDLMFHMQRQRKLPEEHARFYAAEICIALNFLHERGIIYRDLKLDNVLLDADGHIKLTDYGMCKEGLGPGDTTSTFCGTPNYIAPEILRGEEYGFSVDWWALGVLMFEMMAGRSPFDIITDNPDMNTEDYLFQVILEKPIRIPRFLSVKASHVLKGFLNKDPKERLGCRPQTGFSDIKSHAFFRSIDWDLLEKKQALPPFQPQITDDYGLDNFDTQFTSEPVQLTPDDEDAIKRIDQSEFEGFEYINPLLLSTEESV
Method: as §1, §2, §3

[4] = tested on: PKC-α; experiment: Binding of PREs to PKC-α in V5E-transfected IMR-32 cells and effect on cell morphology; type: cell-based, human; settings: V5E-transfected IMR-32 cells; for Relative Fluorescence Intensity (mean): PRE by pinocytic endocytosis, transfected + reagent control 113
Text: Neuroblastoma cells from the IMR-32 cell line were stably transfected with a vector containing the V5E sequence of PKC-α as outlined above in Example 13. The V5E sequence is part of the antigenic amino acid sequence that is used to raise the commercially available anti-PKC-α isoform-specific antibody.
The peptides PRE 1, 2, 3, 4, 5, 6, 7, 8, 9, 10, 11, 12 and 13 (see Table 3) were incorporated into the transfected IMR-32 cells via pinocytic endocytosis (Molecular Probes) according to the supplier's recommendations. Following fixation and permeabilization, PKC-α was detected using an Alexa fluor secondary antibody (as described above in Example 8).
Results: The expressed V5E fragment adds to the decoration of PKC-α in the transfected IMR-32 cells since it is recognized by the same antibody (compare FIGS. 20A and 20B).

Substance | Affinity for PKC isoform βI [1] | Affinity for PKC isoform ζ [3] | affinity for PKC-βI ([1]; cell extracts) | Affinity for PKC isoform βII [2] | PKC-α label [4] | Relative Fluorescence Intensity (mean) [4] | effect on cell morphology [4] | effect on karyokinesis [4]
Ac-AKGIQEVKGGDAQNLIGISI-NH2 [PRE 3] | L | — |  | L | more intense perinuclear decoration | 83 |  | 
Ac-AKGIQEVKGGKDAQNLIGISI-NH2 [PRE 5] | H | L/H |  | H |  | 124 | poor morphology | aborted karyokinesis
Ac-ISIGILNQADK-NH2 [PRE 10] | M | M/L |  | — |  |  |  | aborted karyokinesis
Ac-isigilgnadk-NH2 [PRE 9] | M | M/L |  | — | strong perinuclear label | 121 |  | 
ILEDKGGDAQNLIGISI [PRE 8] |  |  |  | H |  |  |  | 

Second part, led by results:

Affinity for PKC isoform βI [1] | Affinity for PKC isoform ζ [3] | affinity for PKC-βI ([1]; cell extracts) | Substance | Affinity for PKC isoform βII [2] | PKC-α label [4] | Relative Fluorescence Intensity (mean) [4] | effect on cell morphology [4] | effect on karyokinesis [4]
— | — |  | Ac-ISIGILQNADK-NH2 [PRE 7] |  |  |  |  | 
H | — |  | Ac-KDANQLIGISI-NH2 [PRE 6] |  |  |  |  | aborted karyokinesis
— | M/H |  | Ac-KDAQNLI-NH2 [PRE 12] | L |  |  | little effect on the cell morphology | 
H | — | good affinity for PKC-βI | Ac-KDAQNLIGISI-NH2 [PRE 4, Ac-KDAQNLIGISI-NH2] | L | decreased label | 79 | morphological changes with enlarged cells | 
— | — |  | Ac-RDAQNLI-NH2 [PRE 13] |  |  | 116 | little effect on the cell morphology | 
H | — |  | Ac-RDAQNLIGISI-NH2 [PRE 11] |  |  |  | apoptotis | 
H | L |  | RRKKGGKDFVVKR [PRE 1] |  |  |  | many dividing cells and abnormal morphology | 
